Measured values from patent US20250288687A1, “COMBINATION OF ANTIBODY-DRUG CONJUGATES AND DNMT INHIBITORS” (priority 2022, published 2025).

Columns and labels:
[1] = system: TROP2 and SLFN11 expression; settings: decitabine treatment; cited from earlier work
[2] = system: DLD-1 xenograft mouse model; experiment: Antitumor test, IMMU-132 with or without decitabine pre-treatment; type: in vivo, BALB/c-nu mice; settings: IMMU-132 10 mg/kg IV Day 7, 14; with vs without DAC 0.5 mg/kg SC Day 0-4 pre-treatment; Day 28, Welch's t-test; FIG. 15
Protocol: Female BALB/c-nu mice aged 5 weeks (The Jackson Laboratory Japan, Inc.) were used, following 5 days acclimatization before entry into the study.
(§1) 3×10^6 of DLD-1 cells suspended in saline were implanted subcutaneously onto the flank of the mice. The major axis and the minor axis of the tumor were measured twice a week with an electronic digital caliper and the tumor volume was calculated by the following equation:
When the tumor volume reached approximately 100-150 mm^3, the tumor-bearing mice were randomly assigned to the treatment groups (Day 0) as shown in Table 2.
Statistical significance between IMMU-132 group and Decitabine+IMMU-132 group was evaluated using Welch's t-test on the tumor volumes at the day of the final measurement (Day 28).
Decitabine (DAC) was dissolved with Phosphate-buffered saline (PBS) and subcutaneously administered to the mice. IMMU-132 was dissolved with ABS buffer (10 mM Acetate buffer [pH5.5], 5% sorbitol) and intravenously administered to the tail vein of the mice. The dose volume of the compounds for each mouse was calculated based on the latest individual body weight measured within 2 days before dosing. DAC was subcutaneously administered at 0.5 mg/kg once a day from Day 0 to Day 4 (5 dosing in total). IMMU-132 was intravenously administered at 10 mg/kg to the tail vein on Day 7 and Day 14 (Weekly dosing×2).

[3] = system: xenograft cell lines of metaplastic cancer origin and mesenchymal subtype breast cancer cell lines; settings: sacituzumab govitecan combined with decitabine; cited from earlier work
DLD-1 cells [4] = experiment: Cell growth inhibition study, DS-1062a with or without decitabine pre-treatment (CellTiter-Glo); type: cell-based, Human; settings: DAC (1, 0.3, 0.1 μM, 3 days) treated vs untreated cells, DS-1062a 0.1-100 nM, 6 days, FIG. 12A
Protocol: (§2) Human colorectal cancer cell lines DLD-1 and HCT-15, obtained from American Type Culture Collection (ATCC), were incubated with RPMI1640 medium supplemented with 10% (v/v) heat-inactivated FBS, 1% (v/v) penicillin-streptomycin solution and 1 mM sodium pyruvate (Medium), with or without Decitabine (DAC) (Tokyo Chemical Industry Co., Ltd) at 1, 0.3 and 0.1 μM at 37° C. under 5% CO2 for 3 days. The cells were harvested and re-seeded at 1000 cells/80 μL/well into 96-well black clear bottom plates, and incubated overnight at 37° C. under 5% CO2. Then 20 μL of the DS-1062a solutions diluted with the Medium at the concentrations from 500 nM to 0.5 nM were added into the wells and incubated for 6 days for DLD-1 cells, and for 8 days for HCT-15 cells, respectively. The final concentrations of DS-1062a were 100, 10, 1 and 0.1 nM. After the incubation, the cellular ATP levels were measured using CellTiter-Glo Luminescent Cell Viability Assay (Promega) and a microplate reader.
(§3) Cell viability, defined as relative percent to the value of DS-1062a non-treated cells in each group treated with or without DAC, was assessed (N=1 (triplicate), mean±SD).
(§4) Individual cell viability (%) was calculated by the following equation:
(§5) [formula] • T: individual luminescence intensity of the wells treated with DS-1062a at each concentration • C: mean luminescence intensity of the wells treated without DS-1062a

HCT-15 cells = experiment: as above; type: cell-based, Human; settings: DAC (1, 0.3, 0.1 μM, 3 days) treated vs untreated cells, DS-1062a 0.1-100 nM, 8 days, FIG. 12B
Protocol: as §2, §3, §4, §5

[5] = system: DLD-1 xenograft mouse model; experiment: Antitumor test, DS-1062a with or without decitabine pre-treatment; type: in vivo, BALB/c-nu mice; settings: DS-1062a 10 mg/kg IV Day 7; DAC 0.5 mg/kg SC Day 0-4 pretreated vs untreated group; Day 28, Welch's t-test, P<0.05; FIG. 13
Protocol: Female BALB/c-nu mice aged 5-6 weeks (The Jackson Laboratory Japan, Inc.) were used, following 4 days acclimatisation before entry into the study.
as §1
When the tumor volume reached approximately 100-150 mm^3, the tumor-bearing mice were randomly assigned to treatment groups (Day 0) as shown in Table 1:
Decitabine (Tokyo Chemical Industry Co., Ltd) was dissolved and diluted with Phosphate-buffered saline (PBS) and subcutaneously administered to the mice. DS-1062a solution was diluted with ABS buffer (10 mM Acetate buffer [pH5.5], 5% sorbitol) and intravenously administered to the tail vein of the mice. The dose of the compounds for each mouse was calculated based on the individual body weight on the day of dosing. Decitabine was subcutaneously administered at 0.5 mg/kg once a day from Day 0 to Day 4 (5 dosing in total). […] Statistical significance between the ‘DS-1062a’ group and the ‘Decitabine+DS-1062a’ group was evaluated using Welch's t-test on the tumor volumes at the day of the final measurement (Day 28).

DLD-1 cells [6] = experiment: Cell growth inhibition study, DS-1062a with or without azacitidine pre-treatment (CellTiter-Glo); type: cell-based, Human; settings: AZA (10, 3.3, 1.1 μM, 3 days) treated vs AZA untreated cells, DS-1062a 0.1-100 nM, 6 days, FIG. 14
Protocol: Human colorectal cancer cell line DLD-1 was incubated with RPMI1640 medium supplemented with 10% (v/v) heat-inactivated FBS (Medium), with or without Azacitidine (AZA) at 10, 3.3 and 1.1 μM at 37° C. under 5% CO2 for 3 days. The cells were harvested and re-seeded at 1000 cells/90 μL/well into a 96-well black clear bottom plate, and incubated overnight at 37° C. under 5% CO2. Then 10 μL of the DS-1062a solutions diluted with the Medium at the concentrations from 1000 nM to 1 nM were added into the wells and incubated for 6 days. The final concentrations of DS-1062a were 100, 10, 1 and 0.1 nM. After the incubation, the cellular ATP levels were measured using CellTiter-Glo Luminescent Cell Viability Assay (Promega Corporation) and a microplate reader.
Cell viability, defined as relative percent to the value of DS-1062a non-treated cells in each group treated with or without AZA, was assessed (N=1 (triplicate), mean±SD).
Individual cell viability (%) was calculated by the following equation;
as §5

For `Nc1ncn([C@H]2C[C@H](O)[C@@H](CO)O2)c(=O)n1` [decitabine, 5-aza-2′-deoxycytidine], the “TROP2 and SLFN11 expression” value [1] is given as “upregulates”.

For Sacituzumab govitecan [IMMU-132], the “antitumor activity (tumor volume)” value [2] is listed as “not significantly different” and the antitumor efficacy [3] is listed as “enhances”.

With datopotamab deruxtecan [DS-1062a] the “cell growth inhibitory activity (cell viability)” value (from here on “cell growth inhibitory activity”) (DLD-1 cells [4]) was “enhanced”, the “cell growth inhibitory activity” value (HCT-15 cells) was “enhanced” and the “antitumor activity (tumor volume)” value [5] was “significantly enhanced”. The “cell growth inhibitory activity” value (DLD-1 cells [6]) was “enhanced”.
